Measured values published in patent EP3827825A1, “USE OF 3, 4-DIARYLPYRAZOLES AS ANTIBACTERIAL AGENTS” (Wageningen Universiteit, priority 2019, dated 2021).
≈ marks a conversion by molar mass, not a printed value. Like-named read-outs stand apart in the source and are kept apart here.

Tests used:
NRK-52E = assay: Cell toxicity, Alamar blue assay, 24 hours exposure; assay type: cell-based; settings: for IC50: Rattus norvegicus
Experimental: (§1) Toxicity was primarily determined by measuring cytotoxicity with the Alamar blue assay. In short, cells (HEK293, NRK-52E and Caco-2) were plated in 96-well plates and cultured overnight. HKI compounds were diluted to concentrations ranging from 0.39 to 500 µg/mL in serum-free medium and added to the cells.
(§2) After exposure, cells were incubated for 24 hours. Experiments were mostly performed by single measurement. […] After 24 hours HKIs were removed from the cells and Alamar blue was added, incubated for 45 minutes and fluorescence was measured on a spectrophotometer. Alamar blue measures the conversion of blue, low fluorescent resazurin into high fluorescent pink resorufin. This conversion can only be made in viable mitochondria in viable cells and therefore this dye provides a measure for cytotoxicity.

HEK293 = assay: as above; assay type: cell-based; settings: for IC50: Homo sapiens
Experimental: as §1, §2

P. multocida = assay: Minimal inhibitory concentration (MIC), double-dilution in broth, OD600; assay type: cell-based, Pasteurella multocida; settings: unit assumed
Experimental: (§3) In short, a stock solution of 5 mg/mL of HKIs in DMSO was made. This stock was diluted to 50 µg/mL in broth in a 96 well plate. Dilutions were made (factor 2) directly in the plate with a multi-channel pipet. Bacteria cultured in suspension overnight were then added to the plate (except negative control) and the plate was incubated for 24 hours. After 24 hours the OD600 was measured using a spectrophotometer. A positive control (with bacteria, without HKI) was also measured on each plate. The MICs were not determined in duplo/triplicate in the same experiment, however, the MICs of several HKIs were measured in different experiments and no major differences (max. 1x dilution) were found in the MICs between the experiments.
(§4) Bacterial strains used in this study for antibacterial susceptibility testing (Table S2) were propagated using standard microbiological procedures. Minimal inhibitory concentrations (MICs) were determined following a standard double-dilution method (42), 73. MICs were recorded as the lowest concentration of the compound where no visible growth was observed. After plating the dilutions around the MIC or growing them in fresh MH media, minimal bactericidal concentration (MBC) was recorded as the lowest concentration of the compound at which no colonies were formed or no growth was observed, respectively. For M. marinum, MICs were determined in Middlebrook 7H9 broth (Difco) and MICs were determined after 3 days incubation at 30 °C.
(§5) Grow the bacterial colonies to be tested from single colonies on an agar plate in LB broth or suitable bacterial growth medium overnight at 37°C. Prepare a 5 mg/mL stock solution of compounds to be tested in DMSO. One 96-well plate per bacterial strain was prepared. First, put 50 uL of medium to each well. Add 48 µL of medium to all wells in row A. Pipet 2 µL of antimicrobial master stock into the top well (row A). Beware, the antimicrobial concentration will be diluted 2x after adding the bacterial culture. Total volume in each well will be 100 µL. In A11, pipet 2 µL of DMSO. Make a serial dilution from row A to row H, pipetting 50 µL from the previous row into the new one. Mix well by pipetting up and down. Discard the last 50 µL so that there is 50 µl in each well In a clean, new plastic pipetting cup, dilute the overnight bacterial culture 100 times. Add 100 µL of bacterial overnight culture to 9900 µL of medium. Mix the suspension well. Once the serial dilutions are complete for all antimicrobial compounds, add 50 µL of diluted overnight bacterial culture to each well (except column 12). Mix by pipetting or put the plate on the shaker. Per 2 plates, close with parafilm around the edges and place in the incubator overnight. After overnight culturing, measure bacterial growth on the SpectraMax. The lowest concentration where no growth is observed is the MIC. To determine the MIB pipette 5 µL from each well of the 96 well plate where now growth was observed on to an LB agar plate, without antimicrobial. Put the plates in the incubator to grow overnight. The minimal concentration where no growth can be seen on the agar plate is the MBC.

E. coli JW5503 = assay type: cell-based, Escherichia coli; settings: unit assumed
Experimental: as §3, §4, §5

E. faecium Van A = assay: Minimal inhibitory concentration (MIC), double-dilution in broth, OD600; assay type: cell-based, Enterococcus faecium; settings: unit assumed
Experimental: as §3, §4, §5

S. suis = assay: as above; assay type: cell-based, Streptococcus suis; settings: unit assumed
Experimental: as §3, §4, §5

S. aureus Newman = assay: as above; assay type: cell-based, Staphylococcus aureus Newman; settings: unit assumed
Experimental: as §3, with “plate.” for “plate. The MICs were not determined in duplo/triplicate in the same experiment, however, the MICs of several HKIs were measured in different experiments and no major differences (max. 1x dilution) were found in the MICs between the experiments.”
Bacterial strains used in this study for antibacterial susceptibility testing (Table S2) were propagated using standard microbiological procedures. Minimal inhibitory concentrations (MICs) were determined following a standard double-dilution method (42), 73. […] For M. marinum, MICs were determined in Middlebrook 7H9 broth (Difco) and MICs were determined after 3 days incubation at 30 °C.
as §5

M. marinum = assay: Minimal inhibitory concentration (MIC), Middlebrook 7H9 broth, 3 days at 30 °C; assay type: cell-based, Mycobacterium marinum; settings: unit assumed
Experimental: as §3, §4, §5

[1] = read-out: IC50 NRK-52E (50 mg/mL stock)
[2] = HEK293, read-out: IC50 HEK293 (5 mg/mL stock)
[3] = HEK293, read-out: IC50 HEK293 (50 mg/mL stock)

Structure (SMILES)	IC50 NRK-52E (50 mg/mL stock) (NRK-52E; 50 mg/mL stock)	IC50 HEK293 (5 mg/mL stock) (HEK293; HEK293, 5 mg/mL stock)	IC50 HEK293 (50 mg/mL stock) (HEK293; HEK293, 50 mg/mL stock)	MIC P. multocida (P. multocida) [µg/mL]	MIC E. coli JW5503 (E. coli JW5503) [µg/mL]	MIC E. faecium Van A (E. faecium Van A) [µg/mL]	MIC S. suis (S. suis) [µg/mL]	MIC S. aureus Newman (S. aureus Newman) [µg/mL]	MIC M. marinum (M. marinum) [µg/mL]	IC50 (NRK-52E; [1]) [µg/mL]	IC50 (HEK293; [2]) [µg/mL]	IC50 (HEK293; [3]) [µg/mL]	IC50 (NRK-52E; read-out: IC50 NRK-52E (50 mg/mL stock), 50 mg/mL stock) [µg/mL]	IC50 (HEK293; read-out: IC50 HEK293 (50 mg/mL stock), HEK293, 50 mg/mL stock) [µg/mL]
Oc1ccc(-c2n[nH]c(C(F)(F)F)c2-c2ccc(Br)cc2)c(O)c1 [AND-1, 4-[4-(4-bromophenyl)-5-(trifluoromethyl)-1∼{H}-pyrazol-3-yl]resorcinol]	∼3.86	6.94	14.7	25 (≈ 62.6 µM)	1.56 (≈ 3.91 µM)	12.5 (≈ 31.3 µM)	12.5 (≈ 31.3 µM)	3.13 (≈ 7.84 µM)	> 50	–	–	–	–	–
Cc1noc(-c2ccc(O)cc2O)c1-c1ccc(Br)cc1 [AND-3, 4-[4-(4-bromophenyl)-3-methyl-isoxazol-5-yl]resorcinol]	–	–	–	50 (≈ 144 µM)	6.25 (≈ 18.1 µM)	0.78 (≈ 2.25 µM)	50 (≈ 144 µM)	25 (≈ 72.2 µM)	> 50	~354 (≈ 1020 µM)	12.2 (≈ 35.2 µM)	62.9 (≈ 182 µM)	–	–
COc1ccc(-c2[nH]nc(C)c2-c2ccc(Br)cc2)c(O)c1 [May-4, 2-[4-(4-bromophenyl)-5-methyl-1∼{H}-pyrazol-3-yl]-5-methoxy-phenol]	–	–	–	12.5 (≈ 34.8 µM)	3.13 (≈ 8.71 µM)	12.5 (≈ 34.8 µM)	6.25 (≈ 17.4 µM)	6.25 (≈ 17.4 µM)	25 (≈ 69.6 µM)	~83.7 (≈ 233 µM)	8.96 (≈ 24.9 µM)	–	–	–
CCOc1ccc(-c2[nH]nc(C(F)(F)F)c2-c2ccc(Br)cc2)c(O)c1 [May-6, 2-[4-(4-bromophenyl)-5-(trifluoromethyl)-1∼{H}-pyrazol-3-yl]-5-ethoxy-phenol]	–	–	–	> 50	3.13 (≈ 7.33 µM)	3.13 (≈ 7.33 µM)	3.13 (≈ 7.33 µM)	1.56 (≈ 3.65 µM)	50 (≈ 117 µM)	~563 (≈ 1320 µM)	4.53 (≈ 10.6 µM)	–	–	–
O=[N+]([O-])c1ccc(COc2ccc(-c3n[nH]c(C(F)(F)F)c3-c3ccc(Br)cc3)c(O)c2)cc1 [May-11, 2-[4-(4-bromophenyl)-5-(trifluoromethyl)-1∼{H}-pyrazol-3-yl]-5-(4-nitrobenzyl)oxyphenol]	–	–	–	> 50	> 50	1.56 (≈ 2.92 µM)	3.13 (≈ 5.86 µM)	1.56 (≈ 2.92 µM)	12.5 (≈ 23.4 µM)	~3.91 (≈ 7.32 µM)	–	6.2 (≈ 11.6 µM)	–	–
NNC(=O)COc1ccc(-c2n[nH]c(C(F)(F)F)c2-c2ccc(Br)cc2)c(O)c1 [May-12, 2-[4-[4-(4-bromophenyl)-5-(trifluoromethyl)-1∼{H}-pyrazol-3-yl]-3-hydroxy-phenoxy]acetohydrazide]	–	–	–	50 (≈ 106 µM)	6.25 (≈ 13.3 µM)	12.5 (≈ 26.5 µM)	6.25 (≈ 13.3 µM)	12.5 (≈ 26.5 µM)	> 50	27.2 (≈ 57.7 µM)	7.04 (≈ 14.9 µM)	–	–	–
Oc1ccc(-c2n[nH]c(C(F)(F)F)c2-c2ccc(Cl)cc2)c(O)c1 [May-14, 4-[4-(4-chlorophenyl)-5-(trifluoromethyl)-1∼{H}-pyrazol-3-yl]resorcinol]	–	–	–	25 (≈ 70.5 µM)	3.13 (≈ 8.82 µM)	12.5 (≈ 35.2 µM)	12.5 (≈ 35.2 µM)	3.13 (≈ 8.82 µM)	> 50	3.04 (≈ 8.57 µM)	–	10.6 (≈ 29.9 µM)	–	–
Oc1cc(OCc2ccccc2)ccc1-c1n[nH]c(C(F)(F)F)c1-c1ccc(Br)cc1 [May-15, 5-benzoxy-2-[4-(4-bromophenyl)-5-(trifluoromethyl)-1∼{H}-pyrazol-3-yl]phenol]	–	–	–	> 50	> 50	3.13 (≈ 6.4 µM)	3.13 (≈ 6.4 µM)	1.56 (≈ 3.19 µM)	12.5 (≈ 25.5 µM)	5.13 (≈ 10.5 µM)	–	6.9 (≈ 14.1 µM)	–	–
COc1ccc(-c2n[nH]c(C(F)(F)F)c2-c2ccc(Cl)cc2)c(O)c1 [May-16, 2-[4-(4-chlorophenyl)-5-(trifluoromethyl)-1∼{H}-pyrazol-3-yl]-5-methoxy-phenol]	–	–	–	25 (≈ 67.8 µM)	1.56 (≈ 4.23 µM)	–	3.13 (≈ 8.49 µM)	3.13 (≈ 8.49 µM)	50 (≈ 136 µM)	–	3.59 (≈ 9.74 µM)	–	–	–
COc1ccc(-c2n[nH]c(C(F)(F)F)c2-c2ccccc2)c(O)c1 [May-21, 5-methoxy-2-[4-phenyl-5-(trifluoromethyl)-1∼{H}-pyrazol-3-yl]phenol]	–	–	–	50 (≈ 150 µM)	3.13 (≈ 9.36 µM)	–	25 (≈ 74.8 µM)	12.5 (≈ 37.4 µM)	> 50	~15.6 (≈ 46.8 µM)	6.47 (≈ 19.4 µM)	46.9 (≈ 140 µM)	–	–
NNC(=O)COc1ccc(-c2[nH]nc(C(F)(F)F)c2-c2ccccc2)c(O)c1 [May-25, 2-[3-hydroxy-4-[4-phenyl-5-(trifluoromethyl)-1∼{H}-pyrazol-3-yl]phenoxy]acetohy drazide]	–	–	–	50 (≈ 127 µM)	6.25 (≈ 15.9 µM)	25 (≈ 63.7 µM)	–	12.5 (≈ 31.9 µM)	–	106 (≈ 271 µM)	27.6 (≈ 70.3 µM)	–	–	–
COc1ccc(-c2c(C(F)(F)F)n[nH]c2-c2ccc(OCc3ccccc3)cc2O)cc1 [May-26, 5-benzoxy-2-[4-(4-methoxyphenyl)-5-(trifluoromethyl)-1∼{H}-pyrazol-3-yl]phenol]	–	–	–	> 50	3.13 (≈ 7.11 µM)	–	3.13 (≈ 7.11 µM)	1.56 (≈ 3.54 µM)	12.5 (≈ 28.4 µM)	9.64 (≈ 21.9 µM)	–	4.8 (≈ 10.9 µM)	–	–
CCOc1ccc(-c2n[nH]c(C)c2-c2ccc(Cl)cc2)c(O)c1 [Sep-22, 2-[4-(4-chlorophenyl)--5-methyl-1∼{H}-pyrazol-3-yl]-5-ethoxy-phenol]	–	–	–	> 50	–	> 50	50 (≈ 152 µM)	50 (≈ 152 µM)	> 50	~1480 (≈ 4510 µM)	–	23.6 (≈ 71.8 µM)	–	–
COc1ccc(-c2n[nH]cc2-c2ccc(Cl)cc2)c(O)c1 [Sep-23, 2-[4-(4-chlorophenyl)-1∼{H}-pyrazol-5-yl]-5-methoxy-phenol]	–	–	–	> 50	–	> 50	> 50	25 (≈ 83.1 µM)	> 50	259 (≈ 861 µM)	9.14 (≈ 30.4 µM)	39.7 (≈ 132 µM)	–	–
NNC(=O)COc1ccc(-c2n[nH]c(C(F)(F)F)c2-c2ccc(Cl)cc2)c(O)c1 [Sep-24, 2-[4-[4-(4-chlorophenyl)-5-(trifluoromethyl)-1∼{H}-pyrazol-3-yl]-3-hydroxy-phenoxy]acetohydr azide]	–	–	–	> 50	–	50 (≈ 117 µM)	> 50	50 (≈ 117 µM)	> 50	–	–	–	104 (≈ 243 µM)	119 (≈ 279 µM)
